Measurements reported in patent publication US9783511B2, “Carbamate benzoxazine propionic acids and acid derivatives for modulation of RORgamma activity and the treatment of disease” (Merck Sharp & Dohme Corp., priority 2013, dated 2017).

Molecular target: human RORgammaT-Ligand Binding Domain (LBD) (Homo sapiens (Human), UniProt P51449)
Assay: RORγ-Ligand Binding Domain TR-FRET Assay (co-activator peptide SRC1_2 recruitment)
Format: biochemical
Settings: HIS-tagged RORγ-LBD 3 nM, biotinylated SRC1 LXXLL peptide 100 nM, incubated overnight at 4° C., 665 nm/615 nm ratio
Description: Activation of RORgammaT activity can be measured using, e.g., a biochemical TR-FRET assay. In such an assay, interaction of cofactor-derived peptides with human RORgammaT-Ligand Binding Domain (LBD) can be measured.
To identify novel antagonists of RORgammaT, an assay was developed which employs the interaction of RORgammaT with its co-activator peptide SRC1_2. […] The RORγ-Ligand Binding Domain TR-FRET Assay was run according to the following protocol.
HIS-tagged RORγ-LBD protein was recombinantly expressed in Escherichia coli. The RORγ-LBD protein was purified by Ni^2+-affinity resin. Purified protein was then diluted in assay buffer (50 mM Tris pH 7.0, 50 mM KCl, 1 mM EDTA, 0.1 mM DTT, 100 μg/mL bovine serum albumin, delipidated) to obtain a RORγ-LBD final concentration of 3 nM.
Compounds to be tested were injected to the 384-well assay plate using Acoustic Droplet Ejection technology by Echo 550 liquid handler (Labcyte, CA).

Sequence of human RORgammaT-Ligand Binding Domain (LBD) (P51449 269-508): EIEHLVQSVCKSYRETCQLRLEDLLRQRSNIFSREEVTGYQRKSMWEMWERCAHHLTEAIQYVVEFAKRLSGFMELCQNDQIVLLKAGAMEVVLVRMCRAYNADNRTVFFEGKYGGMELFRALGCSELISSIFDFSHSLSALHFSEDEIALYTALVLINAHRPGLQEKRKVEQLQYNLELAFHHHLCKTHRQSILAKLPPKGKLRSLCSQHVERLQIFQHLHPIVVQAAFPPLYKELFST

| Compound | IC50 [nM] |
| --- | --- |
| CC[C@@H](C[C@H]1CN(S(=O)(=O)c2cccc(C3CC3)c2)c2cc(NC(=O)OC(C)(C)C(F)(F)F)ccc2O1)C(=O)O (single isomer, unassigned) [Example 10F, (R or S)-2-(((S)-4-((3-cyclopropylphenyl)sulfonyl)-6-((((1,1,1-trifluoro-2-methylpropan-2-yl)oxy)carbonyl)amino)-3,4-dihydro-2H-benzo[b][1,4]oxazin-2-yl)methyl)butanoic acid] | 13.3 |
| CC[C@H](C[C@H]1CN(S(=O)(=O)c2cn(CC)nc2OCCO)c2cc(NC(=O)OC(C)(C)C(F)(F)F)ccc2O1)C(=O)O (single isomer, unassigned) [Example 10L, (R or S)-2-(((S)-4-((1-ethyl-3-(2-hydroxyethoxy)-1H-pyrazol-4-yl)sulfonyl)-6-((((1,1,1-trifluoro-2-methylpropan-2-yl)oxy)carbonyl)amino)-3,4-dihydro-2H-benzo[b][1,4]oxazin-2-yl)methyl)butanoic acid] | 49.5 |
| CC[C@@H](C[C@H]1CN(S(=O)(=O)c2cn(CC)nc2OCCO)c2cc(NC(=O)OC(C)(C)C(F)(F)F)ccc2O1)C(=O)O (single isomer, unassigned) [Example 10N, (R or S)-2-(((S)-4-((1-ethyl-3-(2-hydroxyethoxy)-1H-pyrazol-4-yl)sulfonyl)-6-((((1,1,1-trifluoro-2-methylpropan-2-yl)oxy)carbonyl)amino)-3,4-dihydro-2H-benzo[b][1,4]oxazin-2-yl)methyl)butanoic acid] | 67.2 |
| Cc1cc(S(=O)(=O)N2C[C@H](C[C@@H](C(=O)O)C3CC3)Oc3ccc(NC(=O)OC(C)(C)C(F)(F)F)cc32)ccc1F (single isomer, unassigned) [Example 10T, (R or S)-2-cyclopropyl-3-((S)-4-((4-fluoro-3-methylphenyl)sulfonyl)-6-((((1,1,1-trifluoro-2-methylpropan-2-yl)oxy)carbonyl)amino)-3,4-dihydro-2H-benzo[b][1,4]oxazin-2-yl)propanoic acid] | 16 |
| Cc1cc(S(=O)(=O)N2C[C@H](C[C@H](C(=O)O)C3CC3)Oc3ccc(NC(=O)OC(C)(C)C(F)(F)F)cc32)ccc1F (single isomer, unassigned) [Example 10X, (R or S)-2-cyclopropyl-3-((S)-4-((4-fluoro-3-methylphenyl)sulfonyl)-6-((((1,1,1-trifluoro-2-methylpropan-2-yl)oxy)carbonyl)amino)-3,4-dihydro-2H-benzo[b][1,4]oxazin-2-yl)propanoic acid] | 32.8 |
| COc1cc(S(=O)(=O)N2C[C@H](C[C@@](C)(O)C(=O)O)Oc3ccc(NC(=O)OC(C)(C)C(F)(F)F)cc32)ccc1F (single isomer, unassigned) [Example 18A, (R or S)-3-((S)-4-((4-fluoro-3-methoxyphenyl)sulfonyl)-6-((((1,1,1-trifluoro-2-methylpropan-2-yl)oxy)carbonyl)amino)-3,4-dihydro-2H-benzo[b][1,4]oxazin-2-yl)-2-hydroxy-2-methylpropanoic acid] | 12.9 |
| COc1cc(S(=O)(=O)N2C[C@H](CC(C)(CO)C(=O)O)Oc3ccc(NC(=O)OC(C)(C)C(F)(F)F)cc32)ccc1F (single isomer, unassigned) [Example 18J, (S or R)-3-((S)-4-((4-fluoro-3-methoxyphenyl)sulfonyl)-6-((((1,1,1-trifluoro-2-methylpropan-2-yl)oxy)carbonyl)amino)-3,4-dihydro-2H-benzo[b][1,4]oxazin-2-yl)-2-(hydroxymethyl)-2-methylpropanoic acid] | 9.13 |
| COc1cc(S(=O)(=O)N2C[C@H](CC(C)(CO)C(=O)O)Oc3ccc(NC(=O)OC(C)(C)C(F)(F)F)cc32)ccc1F (single isomer, unassigned) [Example 18L, (S or R)-3-((S)-4-((4-fluoro-3-methoxyphenyl)sulfonyl)-6-((((1,1,1-trifluoro-2-methylpropan-2-yl)oxy)carbonyl)amino)-3,4-dihydro-2H-benzo[b][1,4]oxazin-2-yl)-2-(hydroxymethyl)-2-methylpropanoic acid] | 10.4 |
| CC(C)(OC(=O)Nc1ccc2c(c1)N(S(=O)(=O)c1ccc(F)c(C(F)(F)F)c1)C[C@H]([C@@H](CC(=O)O)C1CC1)O2)C(F)(F)F (single isomer, unassigned) [Example 21A, (S or R)-3-cyclopropyl-3-((S)-4-((4-fluoro-3-(trifluoromethyl)phenyl)sulfonyl)-6-((((1,1,1-trifluoro-2-methylpropan-2-yl)oxy)carbonyl)amino)-3,4-dihydro-2H-benzo[b][1,4]oxazin-2-yl)propanoic acid] | 28 |
| CC(C)(OC(=O)Nc1ccc2c(c1)N(S(=O)(=O)c1ccc(F)c(C(F)(F)F)c1)C[C@H]([C@H](CC(=O)O)C1CC1)O2)C(F)(F)F (single isomer, unassigned) [Example 21C, (S or R)-3-cyclopropyl-3-((S)-4-((4-fluoro-3-(trifluoromethyl)phenyl)sulfonyl)-6-((((1,1,1-trifluoro-2-methylpropan-2-yl)oxy)carbonyl)amino)-3,4-dihydro-2H-benzo[b][1,4]oxazin-2-yl)propanoic acid] | 30.4 |

The next lines start with the values.

| IC50 [nM] | Compound |
| --- | --- |
| 25 | COc1cc(S(=O)(=O)N2C[C@H](C[C@](C)(O)C(=O)O)Oc3ccc(NC(=O)OC(C)(C)C(F)(F)F)cc32)ccc1F (single isomer, unassigned) [Example 18C, (R or S)-3-((S)-4-((4-fluoro-3-methoxyphenyl)sulfonyl)-6-((((1,1,1-trifluoro-2-methylpropan-2-yl)oxy)carbonyl)amino)-3,4-dihydro-2H-benzo[b][1,4]oxazin-2-yl)-2-hydroxy-2-methylpropanoic acid] |
| 47.1 | Cc1ccc(S(=O)(=O)N2C[C@H]([C@H]3C[C@H]3C(=O)O)Oc3ccc(NC(=O)OC(C)(C)C(F)(F)F)cc32)cc1 (single isomer, unassigned) [Example 22E, (1S,2S or 1R,2R or 1S,2R or 1R,2S)-2-((S)-4-tosyl-6-((((1,1,1-trifluoro-2-methylpropan-2-yl)oxy)carbonyl)amino)-3,4-dihydro-2H-benzo[b][1,4]oxazin-2-yl)cyclopropanecarboxylic acid] |
| 75.7 | Cc1ccc(S(=O)(=O)N2C[C@H]([C@@H]3C[C@@H]3C(=O)O)Oc3ccc(NC(=O)OC(C)(C)C(F)(F)F)cc32)cc1 (single isomer, unassigned) [Example 22F, (1S,2S or 1R,2R or 1S,2R or 1R,2S)-2-((S)-4-tosyl-6-((((1,1,1-trifluoro-2-methylpropan-2-yl)oxy)carbonyl)amino)-3,4-dihydro-2H-benzo[b][1,4]oxazin-2-yl)cylcopropanecarboxylic acid] |
| 34.2 | Cc1ccc(S(=O)(=O)N2C[C@H]([C@H]3C[C@@H]3C(=O)O)Oc3ccc(NC(=O)OC(C)(C)C(F)(F)F)cc32)cc1 (single isomer, unassigned) [Example 22G, (1S,2S or 1R,2R or 1S,2R or 1R,2S)-2-((S)-4-tosyl-6-((((1,1,1-trifluoro-2-methylpropan-2-yl)oxy)carbonyl)amino)-3,4-dihydro-2H-benzo[b][1,4]oxazin-2-yl)cyclopropanecarboxylic acid] |
| 141 | Cc1ccc(S(=O)(=O)N2C[C@H]([C@@H]3C[C@H]3C(=O)O)Oc3ccc(NC(=O)OC(C)(C)C(F)(F)F)cc32)cc1 (single isomer, unassigned) [Example 22H, (1S,2S or 1R,2R or 1S,2R or 1R,2S)-2-((S)-4-tosyl-6-((((1,1,1-trifluoro-2-methylpropan-2-yl)oxy)carbonyl)amino)-3,4-dihydro-2H-benzo[b][1,4]oxazin-2-yl)cyclopropanecarboxylic acid] |
| 13.5 | COc1cc(S(=O)(=O)N2C[C@H]([C@@H]3C[C@H]3C(=O)O)Oc3ccc(NC(=O)OC(C)(C)C(F)(F)F)cc32)ccc1F (single isomer, unassigned) [Example 22J, (1R,2S or 1R,2R or 1S,2S or 1S,2R)-2-((S)-4-((4-fluoro-3-methoxyphenyl)sulfonyl)-6-((((1,1,1-trifluoro-2-methylpropan-2-yl)oxy)carbonyl)amino)-3,4-dihydro-2H-benzo[b][1,4]oxazin-2-yl)cyclopropanecarboxylic acid] |
| 8.71 | COc1cc(S(=O)(=O)N2C[C@H]([C@H]3C[C@H]3C(=O)O)Oc3ccc(NC(=O)OC(C)(C)C(F)(F)F)cc32)ccc1F (single isomer, unassigned) [Example 22M, (1R,2S or 1R,2R or 1S,2S or 1S,2R)-2-((S)-4-((4-fluoro-3-methoxyphenyl)sulfonyl)-6-((((1,1,1-trifluoro-2-methylpropan-2-yl)oxy)carbonyl)amino)-3,4-dihydro-2H-benzo[b][1,4]oxazin-2-yl)cyclopropanecarboxylic acid] |
| 5.87 | COc1cc(S(=O)(=O)N2C[C@H]([C@@H]3C[C@@H]3C(=O)O)Oc3ccc(NC(=O)OC(C)(C)C(F)(F)F)cc32)ccc1F (single isomer, unassigned) [Example 22N, (1R,2S or 1R,2R or 1S,2S or 1S,2R)-2-((S)-4-((4-fluoro-3-methoxyphenyl)sulfonyl)-6-((((1,1,1-trifluoro-2-methylpropan-2-yl)oxy)carbonyl)amino)-3,4-dihydro-2H-benzo[b][1,4]oxazin-2-yl)cyclopropanecarboxylic acid] |
